The values below come from BindingDB's records for doi:10.1021/jm011053+ (Institut De Chimie Pharmaceutique Albert Lespagnol, 2002).

This experiment in a line: Inhibition of 2-[125I]iodomelatonin binding to Melatonin receptor 3 (MT3) of Syrian hamster brain membrane.

As for `COc1ccc2[nH]cc(CCNC(C)=O)c2c1[N+](=O)[O-]` [N-(2-(5-methoxy-4-nitro-1H-indol-3-yl)ethyl)acetamide], the affinity, expressed as Ki, was 1.1 nM. In turn, `COc1ccc2c(c1)c(CCNC(C)=O)cn2C` [N-[2-(5-Methoxy-1-methyl-1H-indol-3-yl)-ethyl]-acetamide] displayed a Ki of 2.8 nM. In turn, `COc1ccc2c(c(CCNC(C)=O)cn2C)c1[N+](=O)[O-]` [N-[2-(5-Methoxy-1-methyl-4-nitro-1H-indol-3-yl)-ethyl]-acetamide] came in with an inhibitory constant (Ki) of 0.31 nM.

For orientation: Ki means a dissociation constant, usually derived from enzyme kinetics or from competition with a known ligand.
